Results from patent US11584747B2, “Substituted pyridopyrimidinonyl compounds useful as T cell activators” (BRISTOL-MYERS SQUIBB COMPANY, priority 2019, dated 2023).
Where two headings read alike, the source gives them in different places.

Key:
human DGKα = human DGKα (Homo sapiens (Human), UniProt P23743); test: DGKα LIPGLO assay (extruded liposome substrate, ADP-Glo luminescence); type: biochemical
human DGKζ = human DGKζ (Homo sapiens (Human), UniProt Q13574); test: DGKζ LIPGLO assay (extruded liposome substrate, ADP-Glo luminescence); type: biochemical
Sequence of human DGKζ (Q13574 other isoform, or with tags, fused parts or gaps): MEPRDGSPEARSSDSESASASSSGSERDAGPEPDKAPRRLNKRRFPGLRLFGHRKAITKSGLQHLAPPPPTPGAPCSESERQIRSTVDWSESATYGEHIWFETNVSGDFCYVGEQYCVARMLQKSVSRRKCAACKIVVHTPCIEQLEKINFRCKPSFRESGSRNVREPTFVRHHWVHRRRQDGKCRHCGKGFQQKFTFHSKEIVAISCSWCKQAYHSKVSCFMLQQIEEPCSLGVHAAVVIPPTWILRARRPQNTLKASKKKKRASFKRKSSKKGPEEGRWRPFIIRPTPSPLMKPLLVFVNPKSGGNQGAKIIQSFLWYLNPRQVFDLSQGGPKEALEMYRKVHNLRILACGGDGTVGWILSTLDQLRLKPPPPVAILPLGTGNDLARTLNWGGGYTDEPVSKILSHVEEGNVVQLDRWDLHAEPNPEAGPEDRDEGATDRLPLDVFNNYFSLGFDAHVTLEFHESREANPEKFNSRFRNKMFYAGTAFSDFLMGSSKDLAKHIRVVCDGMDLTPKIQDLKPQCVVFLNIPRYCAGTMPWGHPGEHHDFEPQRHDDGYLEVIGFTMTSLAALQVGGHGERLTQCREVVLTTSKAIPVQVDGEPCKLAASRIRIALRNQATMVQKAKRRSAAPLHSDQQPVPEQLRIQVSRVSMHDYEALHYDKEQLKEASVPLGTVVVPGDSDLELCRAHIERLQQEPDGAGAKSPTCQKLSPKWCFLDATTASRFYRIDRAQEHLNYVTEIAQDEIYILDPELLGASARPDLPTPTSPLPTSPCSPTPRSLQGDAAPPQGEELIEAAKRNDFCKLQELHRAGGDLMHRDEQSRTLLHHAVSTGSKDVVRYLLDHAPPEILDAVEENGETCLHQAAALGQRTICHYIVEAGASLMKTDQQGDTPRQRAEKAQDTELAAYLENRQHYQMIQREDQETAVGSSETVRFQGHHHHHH

[1] = test system: human venous whole blood (IFN-γ); test: Human whole blood IFN-γ assay; type: cell-based
Experimental: Human venous whole blood (22.5 μL per well), obtained from healthy donors, was pre-treated with compounds for one hour at 37° C. in a humidified 95% air/5% CO2 incubator. The blood was stimulated with 2.5 μL anti-human CD3 and anti-CD28 mAb at a final concentration of 1 μg/mL each for 24 hours at 37° C. IFN-γ in the supernatants was measured using AlphLISA kit (Cat #AL217).

[2] = liposome assay, read-out: DGK alpha LIPGLO IC50
[3] = liposome assay, read-out: DGK zeta LIPGLO IC50
[4] = Homo sapiens, whole blood, normalized to 3 μM reference compound as 100% activation, read-out: IFN-γ Whole Blood Normalized EC50
[5] = whole blood, normalized to 3 μM reference compound as 100% activation, read-out: IFN-γ Whole Blood Normalized EC50

Sequence of human DGKα (P23743 whole entry, looked up): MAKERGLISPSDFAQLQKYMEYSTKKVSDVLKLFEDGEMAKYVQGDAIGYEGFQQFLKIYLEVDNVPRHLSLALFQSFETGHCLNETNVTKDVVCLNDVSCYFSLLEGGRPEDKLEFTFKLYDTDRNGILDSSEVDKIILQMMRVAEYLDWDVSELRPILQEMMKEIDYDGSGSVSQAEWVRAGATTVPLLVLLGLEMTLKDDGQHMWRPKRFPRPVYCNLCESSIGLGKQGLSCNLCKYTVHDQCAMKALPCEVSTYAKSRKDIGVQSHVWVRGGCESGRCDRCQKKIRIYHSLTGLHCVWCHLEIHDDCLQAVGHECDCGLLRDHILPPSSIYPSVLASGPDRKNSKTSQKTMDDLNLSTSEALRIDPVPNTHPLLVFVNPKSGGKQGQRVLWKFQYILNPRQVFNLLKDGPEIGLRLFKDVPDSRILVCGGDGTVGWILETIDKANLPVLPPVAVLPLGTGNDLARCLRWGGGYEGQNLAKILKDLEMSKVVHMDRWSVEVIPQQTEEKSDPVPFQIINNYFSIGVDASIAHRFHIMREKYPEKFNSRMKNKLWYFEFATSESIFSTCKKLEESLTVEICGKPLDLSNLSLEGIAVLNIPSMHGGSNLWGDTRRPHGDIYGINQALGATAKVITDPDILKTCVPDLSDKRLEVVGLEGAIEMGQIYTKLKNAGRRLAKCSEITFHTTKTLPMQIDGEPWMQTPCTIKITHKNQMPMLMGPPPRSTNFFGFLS

IC50 (human DGKα; [2]) | IC50 (human DGKζ; [3]) | IC50 (human DGKα; liposome (LIPGLO) assay, read-out: DGK alpha (liposome assay) IC50) | IC50 (human DGKζ; liposome (LIPGLO) assay, read-out: DGK zeta (liposome assay) IC50) | EC50 ([1]; Homo sapiens, 24 h, human whole blood, anti-CD3 plus anti-CD28 stimulation, 24 hours, read-out: IFN-γ Whole Blood EC50) | Structure (SMILES) | EC50 [1, 4] | EC50 [1, 5]
58 nM | 220 nM |  |  |  | CC[C@@H]1CN(c2nc(=O)n(C)c3ccc(C#N)nc23)[C@@H](C)CN1Cc1ccc(OC(F)(F)F)cc1F [Example 62, 4-((2S,5R)-5-ethyl-4-(2-fluoro-4-(trifluoromethoxy)benzyl)-2-methylpiperazin-1-yl)-1-methyl-2-oxo-1,2-dihydropyrido[3,2-d]pyrimidine-6-carbonitrile] | 200 nM | 
160 nM | 440 nM |  |  |  | CC[C@H]1CN(C(c2ccc(F)cc2)c2ccc(C(F)(F)F)cn2)[C@H](C)CN1c1nc(=O)n(C)c2ccc(C#N)nc12 (stereo partly drawn) [Example 114, 4-((2S,5R)-2-ethyl-4-((4-fluorophenyl)(5-(trifluoromethyl)pyridin-2-yl)methyl)-5-methylpiperazin-1-yl)-1-methyl-2-oxo-1,2-dihydropyrido[3,2-d]pyrimidine-6-carbonitrile] |  | 470 nM
290 nM | 130 nM |  |  |  | COC[C@@H]1CN(c2nc(=O)n(C)c3ccc(C#N)nc23)[C@@H](C)CN1C(c1ccc(F)cc1)c1ccc(C(F)(F)F)cn1 (single isomer, unassigned) [Example 178] | 91 nM | 
470 nM | 1130 nM |  |  |  | CCC(c1ccc(OC(F)F)cc1)N1C[C@H](C)N(c2nc(=O)n(C)c3ccc(C#N)nc23)C[C@H]1CC (single isomer, unassigned) [Example 78] | 75 nM | 
260 nM | 100 nM |  |  |  | CC(c1ccc(F)c(F)c1)N1C[C@H](C)N(c2nc(=O)n(C)c3ccc(C#N)nc23)C[C@H]1C (single isomer, unassigned) [Example 148] |  | 570 nM
700 nM | 5950 nM |  |  |  | CC(c1ccc(OC(F)(F)F)cc1)N1C[C@H](C)N(c2nc(=O)n(C)c3ccc(C#N)nc23)C[C@H]1C (single isomer, unassigned) [Example 132] |  | 2650 nM
1560 nM | 560 nM |  |  |  | C[C@@H]1CN(c2nc(=O)n(C)c3ccc(C#N)nc23)[C@@H](C)CN1C(c1ccc(F)cc1)c1csc(C(F)(F)F)n1 (single isomer, unassigned) [Example 171] |  | 220 nM
16 nM | 370 nM |  |  |  | CCC(c1ccc(OC(F)(F)F)cc1)N1C[C@H](C)N(c2nc(=O)n(C)c3ccc(C#N)nc23)C[C@H]1C (single isomer, unassigned) [Example 154] | 1430 nM | 
170 nM | 36 nM |  |  |  | CC[C@@H]1CN(c2nc(=O)n(C)c3ccc(C#N)nc23)[C@@H](C)CN1C(c1ccc(F)cc1)c1cnc(C2CC2)s1 (single isomer, unassigned) [Example 103] |  | 94 nM
2660 nM | 45000 nM |  |  |  | CC(c1ccc(OC(F)(F)F)cc1)N1C[C@H](C)N(c2nc(=O)n(C)c3ccc(C#N)nc23)C[C@H]1CO (single isomer, unassigned) [Example 184] |  | 20000 nM
960 nM | 930 nM |  |  |  | CC[C@@H]1CN(c2nc(=O)n(C)c3ccc(C#N)nc23)[C@@H](C)CN1C(C)c1ccc(OC)cc1 (single isomer, unassigned) [Example 57] |  | 1900 nM
330 nM | 44 nM |  |  |  | CC[C@@H]1CN(c2nc(=O)n(C)c3ccc(C#N)nc23)[C@@H](C)CN1C(C)c1ccc(C2CC2)cc1F (single isomer, unassigned) [Example 91] | 190 nM | 
 |  | 860 nM | 2550 nM | 170 nM | C[C@@H]1CN(c2nc(=O)n(C)c3ccc(C#N)nc23)[C@@H](C)CN1C(c1ccc(Cl)cc1)c1ccc(Cl)cc1 [Example 373, 4-((2 S, 5R)-4-(bis(4-chlorophenyl)methyl)-2,5-dimethylpiperazin-1-yl)-1-methyl-2-oxo-1,2-dihydropyrido[3,2-d]pyrimidine-6-carbonitrile] |  | 
30 nM | 28 nM |  |  |  | CC[C@@H]1CN(c2nc(=O)n(C)c3ccc(C#N)nc23)[C@@H](C)CN1C(C)c1ccc(C#N)cc1 (single isomer, unassigned) [Example 60] |  | 23 nM
340 nM | 760 nM |  |  |  | CC[C@@H]1CN(c2nc(=O)n(C)c3ccc(C#N)nc23)[C@@H](C)CN1C(C)c1ccc(C2CC2)cc1 (single isomer, unassigned) [Example 64] |  | 690 nM
470 nM | 110 nM |  |  |  | CC[C@@H]1CN(c2nc(=O)n(C)c3ccc(C#N)nc23)[C@@H](C)CN1C(c1ccc(F)cc1)c1cnc(C2CC2)s1 (single isomer, unassigned) [Example 104] |  | 210 nM
310 nM | 510 nM |  |  |  | CC[C@H]1CN(C(C)c2ccc(C(F)(F)F)nc2)[C@H](CC)CN1c1nc(=O)n(C)c2ccc(C#N)nc12 (single isomer, unassigned) [Example 45] |  | 1040 nM

IC50 (human DGKα; [2]) | IC50 (human DGKζ; [3]) | IC50 (human DGKα; liposome (LIPGLO) assay, read-out: DGK alpha (liposome assay) IC50) | IC50 (human DGKζ; liposome (LIPGLO) assay, read-out: DGK zeta (liposome assay) IC50) | EC50 ([1]; Homo sapiens, 24 h, human whole blood, anti-CD3 plus anti-CD28 stimulation, 24 hours, read-out: IFN-γ Whole Blood EC50) | Structure (SMILES) | EC50 [1, 4] | EC50 [1, 5]
2560 nM | 5930 nM |  |  |  | CC[C@H]1CN(C(C)c2ccc(OCC3CC3)cc2F)[C@H](CC)CN1c1nc(=O)n(C)c2ccc(C#N)nc12 (single isomer, unassigned) [Example 33] |  | 3830 nM
1000 nM | 2110 nM |  |  |  | CC[C@H]1CN(C(C)c2ccc(C(F)(F)F)cc2)[C@H](C)CN1c1nc(=O)n(C)c2ccc(C#N)nc12 (stereo partly drawn) [Example 116, 4-((2S,5R)-2-ethyl-5-methyl-4-(1-(4-(trifluoromethyl)phenyl)ethyl)piperazin-1-yl)-1-methyl-2-oxo-1,2-dihydropyrido[3,2-d]pyrimidine-6-carbonitrile] |  | 1430 nM
380 nM | 370 nM |  |  |  | C[C@@H]1CN(c2nc(=O)n(C)c3ccc(C#N)nc23)[C@@H](C)CN1C(c1ccc(OC(F)(F)F)cc1)c1cc(C2CC2)on1 (single isomer, unassigned) [Example 165] |  | 630 nM
1500 nM |  |  |  |  | CC[C@@H]1CN(c2nc(=O)n(C)c3ccc(C#N)nc23)[C@@H](C)CN1C(C)c1ccc2c(c1)OC(F)(F)O2 (single isomer, unassigned) [Example 72] |  | 790 nM
2 nM | 180 nM |  |  |  | CC[C@@H]1CN(c2nc(=O)n(C)c3ccc(C#N)nc23)[C@@H](CC)CN1Cc1ccc(OC(F)(F)F)cc1 [Example 22, 4-((2S,5R)-2,5-diethyl-4-(4-(trifluoromethoxy)benzyl)piperazin-1-yl)-1-methyl-2-oxo-1,2-dihydropyrido[3,2-d]pyrimidine-6-carbonitrile] | 380 nM | 
1570 nM | 2650 nM |  |  |  | CC[C@H]1CN(C(C)c2ccc(C3CC3)cc2)[C@H](CC)CN1c1nc(=O)n(C)c2ccc(C#N)nc12 (single isomer, unassigned) [Example 28] |  | 2040 nM
2100 nM | 1210 nM |  |  |  | CC(c1ccc(OC(F)(F)F)c(F)c1)N1C[C@H](C)N(c2nc(=O)n(C)c3ccc(C#N)nc23)C[C@H]1C (single isomer, unassigned) [Example 161] |  | 4010 nM
180 nM | 360 nM |  |  |  | CC(c1ccc(C(F)(F)F)cc1)N1C[C@H](C)N(c2nc(=O)n(C)c3ccc(C#N)nc23)C[C@H]1C (single isomer, unassigned) [Example 140] |  | 430 nM
500 nM | 31 nM |  |  |  | CC[C@H]1CN(C(C)c2ccc(OCC3CC3)cc2F)[C@H](CC)CN1c1nc(=O)n(C)c2ccc(C#N)nc12 (single isomer, unassigned) [Example 32] |  | 19 nM
670 nM | 22 nM |  |  |  | CC[C@@H]1CN(c2nc(=O)n(C)c3ccc(C#N)nc23)[C@@H](C)CN1C(C)c1ccc2c(c1)OC(F)(F)O2 (single isomer, unassigned) [Example 71] |  | 66 nM
28 nM | 310 nM |  |  |  | CC[C@@H]1CN(c2nc(=O)n(C)c3ccc(C#N)nc23)[C@@H](C)CN1C(c1ccc(F)cc1)c1ccccn1 (single isomer, unassigned) [Example 87] |  | 440 nM
1380 nM | 1330 nM |  |  |  | CC[C@H]1CN(C(C)c2ccc(OC(F)(F)F)cc2)[C@H](C)CN1c1nc(=O)n(C)c2ccc(C#N)nc12 (stereo partly drawn) [Example 123, 4-((2S,5R)-2-ethyl-5-methyl-4-(1-(4-(trifluoromethoxy)phenyl)ethyl)piperazin-1-yl)-1-methyl-2-oxo-1,2-dihydropyrido[3,2-d]pyrimidine-6-carbonitrile] | 2570 nM | 
1330 nM | 760 nM |  |  |  | CC(c1ccc(C2CC2)cc1)N1C[C@H](C)N(c2nc(=O)n(C)c3ccc(C#N)nc23)C[C@H]1C (single isomer, unassigned) [Example 4] |  | 970 nM
56 nM | 1150 nM |  |  |  | C[C@@H]1CN(c2nc(=O)n(C)c3ccc(C#N)nc23)[C@@H](C)CN1C(c1ccc(F)cc1)c1ccon1 (single isomer, unassigned) [Example 162] |  | 1850 nM
460 nM | 120 nM |  |  |  | CC[C@@H]1CN(c2nc(=O)n(C)c3ccc(C#N)nc23)[C@@H](C)CN1C(C)c1ccc(C2CC2)cc1F (single isomer, unassigned) [Example 92] |  | 350 nM
1270 nM | 1760 nM |  |  |  | CC(c1ccc(C(F)(F)F)cc1)N1C[C@H](C)N(c2nc(=O)n(C)c3ccc(C#N)nc23)C[C@H]1C (single isomer, unassigned) [Example 141] |  | 3550 nM
